Assay results as given in patent US8980226B2, “Aerosolized fosfomycin/aminoglycoside combination for the treatment of bacterial respiratory infections” (Gilead Sciences, Inc., priority 2004, dated 2015).
Where two headings read alike, the source gives them in different places.

Legend:
Format in all cases: cell-based
[1] = system: B. cepacia; assay: MIC, agar-plate dilution method
Experimental: (§1) “Minimal inhibitory concentration (MIC)” means the lowest concentration of antibiotic (s) that prevents visible growth after incubation for 18-20 hours at 35° C.
(§2) The efficacy of antibiotics and antibiotic combinations against Gram-positive and Gram-negative bacteria representative of species that cause respiratory infections in patients with cystic fibrosis, bronchiectasis, sinusitis, and ventilator-associated pneumonia were evaluated in MIC assays. P. aeruginosa strains were isolated from lung sputum samples collected from cystic fibrosis patients, blood cultures, respiratory tract infections, and skin or soft tissue infections. E. coli, H. influenzae, B. cepacia, S. maltophilia, K. pneumoniae, M. catarrhalis, S. aureus, S. pneumoniae, S. pyogenes, and E. faecalis were isolated from respiratory tract infections. E. coli ATCC 25922, P. aeruginosa ATCC 27853, and S. aureus ATCC 29213 were used as quality control stains.
(§3) The MICs of fosfomycin alone, tobramycin alone, or combinations of fosfomycin plus tobramycin were determined by the agar-plate dilution method according to NCCLS guidelines (NCCLS, 2003). Bacterial strains were streaked onto Trypic Soy Agar plates (PML Microbiologicals, Wilsonville, Oreg.) containing 5% defibrinated sheep blood (hereafter referred to as blood agar plates) and incubated overnight at 35° C. Two to three bacterial colonies from the overnight cultures were inoculated into 3 mL of sterile normal saline, vortexed briefly, and adjusted to a 0.5 McFarland standard (NCCLS, 2003). The bacterial suspension was diluted 1:40 in sterile normal saline and served as the inoculum. Mueller-Hinton agar plates (hereafter referred to as MHA) were prepared by combining 16 g of agarose (Becton-Dickinson, Sparks, Md.), 22 g of Mueller-Hinton broth powder (Becton-Dickinson, Sparks, Md.), and adjusted to 1 L with distilled water. The agar was sterilized by autoclaving, cooled to 55° C., and supplemented with 25 μg/mL of glucose-6-phosphate (Sigma-Aldrich, St. Louis, Mo.). Twenty-five mL of cooled agar was aliquoted into 50 mL conical tubes and supplemented with appropriate concentrations of antibiotic to achieve concentrations ranging from 0.06 μg/mL to 512 μg/mL. After gently mixing the agar and antibiotic, the suspension was poured into sterile 100 mm petri dishes and allowed to solidify at room temperature. The antibiotic agar plates were inoculated with approximately 2×10^4 CFU/spot with a 48-point inoculator (Sigma-Aldrich, St. Louis, Mo.). The MIC was defined as the lowest concentration of antibiotic (s) that prevented visible growth after incubation for 18-20 hours at 35° C. The efficacy of a particular antibiotic or antibiotic combination on large populations of P. aeruginosa was determined by calculating the MIC50 and MIC90 values. The MIC50 value was defined as the concentration of antibiotic(s) which inhibited 50% of the P. aeruginosa strains. The MIC90 value was defined as the concentration of antibiotic(s) which inhibited 90% of the P. aeruginosa strains (Wiedemann and Grimm, 1996).

[2] = system: H. influenzae; assay: MIC, agar-plate dilution method
Experimental: as §1, §2, §3

[3] = system: E. faecalis; assay: MIC, agar-plate dilution method; details: Enterococcus faecalis
Experimental: as §1, §2, §3

[4] = system: K. pneumoniae; assay: MIC, agar-plate dilution method
Experimental: as §1, §2, §3

[5] = system: E. coli; assay: MIC, agar-plate dilution method; details: Escherichia coli
Experimental: as §1, §2, §3

[6] = system: S. pyogenes; assay: MIC, agar-plate dilution method; details: Streptococcus pyogenes
Experimental: as §1, §2, §3

[7] = system: M. catarrhalis; assay: MIC, agar-plate dilution method
Experimental: as §1, §2, §3

[8] = system: S. maltophilia; assay: MIC, agar-plate dilution method; details: Stenotrophomonas maltophilia
Experimental: as §1, §2, §3

[9] = system: S. aureus; assay: MIC, agar-plate dilution method
Experimental: as §1, §2, §3

[10] = system: P. aeruginosa; assay: MIC, agar-plate dilution method; details: Pseudomonas aeruginosa
Experimental: as §1, §2, §3

[11] = system: S. pneumoniae; assay: MIC, agar-plate dilution method; details: Streptococcus pneumoniae
Experimental: as §1, §2, §3

[12] = system: P. aeruginosa ATCC 27853; assay: Time-kill kinetics in the presence of 2% porcine gastric mucin; details: for killing in time-kill curves / Time to reach bactericidal killing, antibiotic alone: P. aeruginosa ATCC 27853; for killing in time-kill curves: FIGS. 1-7, fosfomycin and tobramycin alone as comparators of the combination; for Time to reach bactericidal killing, antibiotic alone: single antibiotic, 32 μg/mL
Experimental: Two to three bacterial colonies were inoculated into 10 mL CAMHB and incubated at 35° C. in a shaking water bath (250 rpm) for 18-24 hours. […] The resulting culture was adjusted to a 0.5 McFarland standard (NCCLS, 2003). […] Ten milliliter aliquots were then pipeted into 50 mL conical tubes. […] The killing activity of fosfomycin plus amikacin, arbekacin, dibikacin, gentamicin, kanamycin, […], neomycin, streptomycin, or tobramycin were also compared to the killing activity of their individual components alone. […] A no drug control was run in each experiment. Cultures were incubated with antibiotic at 35° C. in a shaking (250 rpm) water bath for 24 hours. […] Culture plates were incubated at 35° C. for 18-24 hours and the number of colonies enumerated manually. The limit of detection for the colony counting method was 1 Log10). Time-kill curves were constructed by plotting the Log10 number of CFU/mL culture versus time.

[13] = Haemophilus influenzae, H. influenzae COR-042, read-out: MIC
[14] = Klebsiella pneumoniae, K. pneumoniae COR-042, read-out: MIC
[15] = Moraxella catarrhalis, M. catarrhalis COR-109, read-out: MIC
[16] = S. maltophilia COR-083, read-out: MIC
[17] = Staphylococcus aureus, S. aureus COR-051 (MSSA), read-out: MIC
[18] = Staphylococcus aureus, S. aureus COR-055 (MRSA), read-out: MIC
[19] = P. aeruginosa COR-003, read-out: MIC
[20] = P. aeruginosa COR-021, read-out: MIC

## C[C@@H]1O[C@@H]1P(=O)(O)O [Fosfomycin]
[1]; B. cepacia COR-098
  MIC: ≧2048 μg/mL
[1]; Burkholderia cepacia, B. cepacia COR-090, read-out: MIC
  MIC: ≥ 2050 mg/L
[2]; Haemophilus influenzae, H. influenzae COR-049
  MIC: 128 mg/L
[2]; [13]
  MIC: 8 mg/L
[3]; E. faecalis COR-099
  MIC: 32 mg/L
[3]; E. faecalis COR-103
  MIC: 32 mg/L
[4]; Klebsiella pneumoniae, K. pneumoniae COR-049
  MIC: 128 mg/L
[4]; [14]
  MIC: 8 mg/L
[5]; E. coli COR-032
  MIC: 1 mg/L
[5]; E. coli COR-039
  MIC: 64 mg/L
[5]; E. coli COR-040
  MIC: 1 mg/L
[6]; S. pyogenes COR-104
  MIC: 64 mg/L
[6]; S. pyogenes COR-105
  MIC: 16 mg/L
[7]; M. catarrhalis COR-113
  MIC: 4 mg/L
[7]; [15]
  MIC: 4 mg/L
[8]
  MIC: 128 mg/L
[8]; [16]
  MIC: 64 mg/L
[8]; S. maltophilia COR-087, read-out: MIC
  MIC: ≥ 512 mg/L
[9]; S. aureus COR-060 (GISA)
  MIC: 2 mg/L
[9]; [17]
  MIC: 1 mg/L
[9]; [18]
  MIC: 4 mg/L
[9]; Staphylococcus aureus, S. aureus COR-059, read-out: MIC
  MIC: 2 mg/L
[10]; [19]
  MIC: 16 mg/L
[10]; P. aeruginosa COR-009
  MIC: 1020 mg/L
[10]; [20]
  MIC: 8 mg/L
[10]; P. aeruginosa COR-027
  MIC: 128 mg/L
[11]; S. pneumoniae COR-061
  MIC: 32 mg/L
[11]; S. pneumoniae COR-068
  MIC: 8 mg/L
[12]
  killing in time-kill curves: bacteriostatic killing
  Time to reach bactericidal killing, antibiotic alone: not bactericidal

## NC[C@H]1O[C@H](O[C@H]2[C@H](O)[C@@H](O[C@H]3O[C@H](CO)[C@@H](O)[C@H](N)[C@H]3O)[C@H](N)C[C@@H]2N)[C@H](N)C[C@@H]1O [Tobramycin]
[1]; Burkholderia cepacia, B. cepacia COR-090
  MIC: 128 mg/L
[1]; Burkholderia cepacia, B. cepacia COR-098, read-out: MIC
  MIC: 64 mg/L
[2]; H. influenzae COR-049
  MIC: 0.5 mg/L
[2]; [13]
  MIC: 0.5 mg/L
[3]; E. faecalis COR-099
  MIC: 512 mg/L
[3]; E. faecalis COR-103
  MIC: 8 mg/L
[4]; K. pneumoniae COR-049
  MIC: 0.5 mg/L
[4]; [14]
  MIC: 0.5 mg/L
[5]; E. coli COR-032
  MIC: 0.5 mg/L
[5]; E. coli COR-039
  MIC: 0.25 mg/L
[5]; E. coli COR-040
  MIC: 32 mg/L
[6]; S. pyogenes COR-104
  MIC: 32 mg/L
[6]; S. pyogenes COR-105
  MIC: 64 mg/L
[7]; M. catarrhalis COR-113
  MIC: 8 mg/L
[7]; [15]
  MIC: 8 mg/L
[8]
  MIC: 128 mg/L
[8]; S. maltophilia COR-082, read-out: MIC
  MIC: 4 mg/L
[8]; [16]
  MIC: 512 mg/L
[9]; [17]
  MIC: 0.25 mg/L
[9]; [18]
  MIC: 0.25 mg/L
[9]; Staphylococcus aureus, S. aureus COR-059
  MIC: 128 mg/L
[9]; Staphylococcus aureus, S. aureus COR-060 (GISA), read-out: MIC
  MIC: 64 mg/L
[10]; [19]
  MIC: 0.5 mg/L
[10]; P. aeruginosa COR-009, read-out: MIC
  MIC: 2050 mg/L
[10]; [20]
  MIC: 64 mg/L
[10]; P. aeruginosa COR-027, read-out: MIC
  MIC: 0.5 mg/L
[11]; S. pneumoniae COR-061
  MIC: 64 mg/L
[11]; S. pneumoniae COR-068
  MIC: 16 mg/L
[12]; 16 ug/mL, FIGS. 8 and 9
  rank of killing activity, combinations and tobramycin alone compared: most active antibiotic
[12]
  killing in time-kill curves: bacteriostatic killing
  Time to reach bactericidal killing, antibiotic alone: 1 h
